Laboratory results published in patent US8735406B2, “8-oxodihydropurine derivative” (Dainippon Sumitomo Pharma Co., Ltd., priority 2009, dated 2014).

Molecular target: T1, FAAH (Rattus norvegicus, UniProt P97612)
T1 construct: Preparation of Rat Brain Membranes Preparations (FAAH Enzyme Solution); from tissue; host or cells: rat cerebrum (brain membrane preparation)
T1 sequence (P97612 1-579): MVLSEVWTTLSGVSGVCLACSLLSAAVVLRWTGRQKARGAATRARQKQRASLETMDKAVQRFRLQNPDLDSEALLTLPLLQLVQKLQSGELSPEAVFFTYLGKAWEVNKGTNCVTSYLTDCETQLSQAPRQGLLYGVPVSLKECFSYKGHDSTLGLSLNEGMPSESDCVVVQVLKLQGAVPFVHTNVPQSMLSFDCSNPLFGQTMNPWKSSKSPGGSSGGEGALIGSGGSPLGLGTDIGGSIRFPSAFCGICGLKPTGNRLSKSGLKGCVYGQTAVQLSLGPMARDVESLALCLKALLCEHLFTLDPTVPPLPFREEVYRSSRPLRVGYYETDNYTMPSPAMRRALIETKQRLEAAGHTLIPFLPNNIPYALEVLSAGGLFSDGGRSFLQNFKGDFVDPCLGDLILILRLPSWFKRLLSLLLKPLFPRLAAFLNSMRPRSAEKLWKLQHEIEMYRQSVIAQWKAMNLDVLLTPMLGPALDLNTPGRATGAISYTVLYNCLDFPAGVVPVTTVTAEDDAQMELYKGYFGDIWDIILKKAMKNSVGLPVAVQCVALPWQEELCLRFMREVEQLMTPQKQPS
Assay: Determination of FAAH inhibitory activity in rat (rat brain membrane preparations, [3H]-anandamide hydrolysis)
Type: biochemical
Settings: rat brain membrane preparations; for inhibition at 0.1 µM: 100 nM test substance, read-out: FAAH Inhibition, Inhibition Rate at 100 nM; for IC50: test substance 0.1 nM to 1 μM, read-out: FAAH Inhibition IC50
Procedure, shortened: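 Compounds tested from 0.1 nM to 1 μM to derive IC50 against FAAH hydrolysis in rat brain membrane preparations (100 μg/mL). A 10-min 37 °C preincubation was followed by 10 min with [3H]-anandamide (2 nM) mixed with 2 μM unlabelled anandamide. Radioactive ethanolamine was extracted into the water/methanol layer and counted.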

| Structure (SMILES) | inhibition at 0.1 µM [%] | IC50 [nM] |
| --- | --- | --- |
| Cn1c(=O)n(C(=O)N2CCCC2)c2cnc(-c3cccc(OC(F)(F)F)c3)nc21 [compound 204] | 81 | 56 |
| COc1cncc(-c2ncc3c(n2)n(C)c(=O)n3C(=O)N2CCCC2)c1 [compound 208] | 106 | 10 |
| Cn1c(=O)n(C(=O)N2CCCC2)c2cnc(-c3cccnc3F)nc21 [compound 209] | 103 | 24 |
| CCOc1ccc(-c2ncc3c(n2)n(C)c(=O)n3C(=O)N2CCCC2)cn1 [compound 210] | 103 | 8 |
| Cn1c(=O)n(C(=O)N2CCCC2)c2cnc(-c3cncc(F)c3)nc21 [compound 211] | 101 | 8 |
| Cc1cncc(-c2ncc3c(n2)n(C)c(=O)n3C(=O)N2CCCC2)c1 [compound 212] | 88 | 54 |
| Cn1c(=O)n(C(=O)N2CCCC2)c2nc(-c3ccccc3F)ncc21 [compound 225] | 57 | 89 |
| COc1ccc(/C=C/c2ncc3c(n2)n(C(=O)N2CCCC2)c(=O)n3C)cc1 [compound 242] | 40 | > 100 |
| Cc1ccc(Cc2ncc3c(n2)n(C)c(=O)n3C(=O)N2CCCC2)cc1 [compound 259] | 95 | 41 |
| COc1ccccc1Cc1ncc2c(n1)n(C)c(=O)n2C(=O)N1CCCC1 [compound 260] | 84 | 58 |
| CCOc1ccc(Cc2ncc3c(n2)n(C)c(=O)n3C(=O)N2CCCC2)cc1 [compound 263] | 75 | 68 |
| Cn1c(=O)n(C(=O)N2CCCC2)c2cnc(Cc3ccc(C#N)cc3)nc21 [compound 264] | 91 | 54 |
| Cn1c(=O)n(C(=O)N2CCCC2)c2cnc(Cc3ccc(F)c(F)c3)nc21 [compound 269] | 96 | 42 |
| COc1cc(Cc2ncc3c(n2)n(C)c(=O)n3C(=O)N2CCCC2)cc(OC)c1 [compound 271] | 39 | > 100 |
| Cn1c(=O)n(C(=O)N2CCCC2)c2cnc(Cc3cccc(-c4ccccc4)c3)nc21 [compound 272] | 35 | > 100 |
| CCN(C)C(=O)n1c(=O)n(C)c2nc(Cc3ccc(C(F)(F)F)cc3)ncc21 [compound 283] | 59 | 74 |
| Cn1c(=O)n(C(=O)N2CCCC2)c2nc(Cc3ccccc3)ncc21 [compound 285] | 66 | 77 |
| COc1ccccc1Cc1ncc2c(n1)n(C(=O)N1CCCC1)c(=O)n2C [compound 291] | 58 | 75 |
| CN(C)C(=O)n1c(=O)n(C)c2cnc(-c3ccc(OC(F)(F)F)cc3)nc21 [compound 318] | 90 | 27 |
| CN(C)C(=O)n1c(=O)n(C)c2cnc(-c3cccc(OC(F)(F)F)c3)nc21 [compound 319] | 95 | 18 |

| Structure (SMILES) | inhibition at 0.1 µM [%] | IC50 [nM] |
| --- | --- | --- |
| CCOc1ccc(-c2ncc3c(n2)n(C(=O)N(C)C)c(=O)n3C)cc1 [compound 320] | 45 | 113 |
| CCOc1cccc(-c2ncc3c(n2)n(C(=O)N(C)C)c(=O)n3C)c1 [compound 321] | 54 | – |
| CN(C)C(=O)n1c(=O)n(C)c2cnc(-c3cccc(F)c3)nc21 [compound 323] | 57 | 77 |
| Cc1cccc(-c2ncc3c(n2)n(C(=O)N(C)C)c(=O)n3C)c1 [compound 324] | 55 | 82 |
| CN(C)C(=O)n1c(=O)n(C)c2cnc(-c3cccc(C(F)(F)F)c3)nc21 [compound 325] | 101 | 11 |
| CN(C)C(=O)n1c(=O)n(C)c2cnc(-c3cccc(OCc4ccccc4)c3)nc21 [compound 327] | 23 | 109 |
| CN(C)C(=O)n1c(=O)n(C)c2cnc(-c3cccc(Cl)c3)nc21 [compound 328] | 118 | 5 |
| CN(C)C(=O)n1c(=O)n(C)c2cnc(-c3ccc(Cl)cc3)nc21 [compound 329] | 95 | 12 |
| CCN(C)C(=O)n1c(=O)n(C)c2cnc(-c3cccc(C)c3)nc21 [compound 340] | 71 | 50 |
| CCN(C)C(=O)n1c(=O)n(C)c2cnc(-c3cccc(OC(F)(F)F)c3)nc21 [compound 341] | 102 | < 1 |
| CCN(C)C(=O)n1c(=O)n(C)c2cnc(-c3cccc(Cl)c3)nc21 [compound 342] | 76 | 52 |
| CCN(C)C(=O)n1c(=O)n(C)c2cnc(-c3cccc(OC(F)F)c3)nc21 [compound 343] | 95 | 14 |
| CCN(C)C(=O)n1c(=O)n(C)c2cnc(-c3cccc(C(F)F)c3)nc21 [compound 344] | 93 | 13 |
| CCN(C)C(=O)n1c(=O)n(C)c2cnc(-c3ccc(OC(F)F)cc3)nc21 [compound 345] | 101 | 9 |
| CCOc1cccc(-c2ncc3c(n2)n(C(=O)N2CCC2)c(=O)n3C)c1 [compound 346] | 99 | 21 |
| CCOc1ccc(-c2ncc3c(n2)n(C(=O)N2CCC2)c(=O)n3C)cc1 [compound 347] | 72 | 61 |
| CCCCOc1cccc(-c2ncc3c(n2)n(C(=O)N2CCC2)c(=O)n3C)c1 [compound 348] | 90 | 28 |
| CCCCOc1ccc(-c2ncc3c(n2)n(C(=O)N2CCC2)c(=O)n3C)cc1 [compound 349] | 103 | 10 |
| Cn1c(=O)n(C(=O)N2CCC2)c2nc(-c3cccc(OC(F)(F)F)c3)ncc21 [compound 350] | 94 | 10 |
| Cn1c(=O)n(C(=O)N2CCC2)c2nc(-c3ccc(OC(F)(F)F)cc3)ncc21 [compound 351] | 104 | 10 |

| Structure (SMILES) | inhibition at 0.1 µM [%] | IC50 [nM] |
| --- | --- | --- |
| Cn1c(=O)n(C(=O)N2CCC2)c2nc(-c3ccccc3)ncc21 [compound 352] | 42 | 164 |
| Cn1c(=O)n(C(=O)N2CCC2)c2nc(-c3cccc(F)c3)ncc21 [compound 353] | 72 | 92 |
| Cn1c(=O)n(C(=O)N2CCC2)c2nc(-c3ccc(F)cc3)ncc21 [compound 354] | 79 | 52 |
| COc1cccc(-c2ncc3c(n2)n(C(=O)N2CCC2)c(=O)n3C)c1 [compound 355] | 76 | 86 |
| Cn1c(=O)n(C(=O)N2CCC2)c2nc(-c3cccc(C(F)(F)F)c3)ncc21 [compound 357] | 107 | 11 |
| Cn1c(=O)n(C(=O)N2CCC2)c2nc(-c3ccc(OCC(F)F)cc3)ncc21 [compound 368] | 99 | 17 |
| Cc1cccc(Cc2ncc3c(n2)n(C)c(=O)n3C(=O)N2CCC2)c1 [compound 371] | 43 | 149 |
| Cn1c(=O)n(C(=O)N2CCC2)c2cnc(Cc3cccc(F)c3)nc21 [compound 372] | 80 | 32 |
| Cn1c(=O)n(C(=O)N2CCC2)c2cnc(Cc3ccc(F)cc3)nc21 [compound 373] | 90 | 17 |
| Cn1c(=O)n(C(=O)N2CCC2)c2cnc(Cc3ccccc3F)nc21 [compound 374] | 85 | 12 |
| COc1ccc(Cc2ncc3c(n2)n(C)c(=O)n3C(=O)N2CCC2)cc1 [compound 376] | 89 | 24 |
| Cn1c(=O)n(C(=O)N2CCC2)c2cnc(Cc3ccccc3Cl)nc21 [compound 377] | 82 | 39 |
| Cn1c(=O)n(C(=O)N2CCC2)c2cnc(Cc3ccc(Cl)cc3)nc21 [compound 378] | 80 | 31 |
| COCCc1ncc2c(n1)n(C)c(=O)n2C(=O)N1CC(c2ccccc2)C1 [compound 389] | 105 | 9 |
| COCCc1ncc2c(n1)n(C)c(=O)n2C(=O)N1CC(c2ccc(F)cc2)C1 [compound 390] | 120 | 1 |
| COCCc1ncc2c(n1)n(C)c(=O)n2C(=O)N1CC(c2cccc(F)c2)C1 [compound 391] | 105 | 4 |
| CCOc1ccc(C2CN(C(=O)n3c(=O)n(C)c4nc(CCOC)ncc43)C2)cc1 [compound 392] | 105 | 11 |
| COCCc1ncc2c(n1)n(C)c(=O)n2C(=O)N1CC(c2cccc(C(F)(F)F)c2)C1 [compound 393] | 101 | 10 |
| Cn1c(=O)n(C(=O)N2CCC2)c2cnc(COc3ccccc3)nc21 [compound 403] | 93 | 20 |
